The source of these data is PubChem BioAssay (NCI).

Each structure is given as a SMILES string.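 1) Cells in 96-well plates. 2) Compound, 48 h, 5 concentrations. 3) Linear interpolation between surrounding doses. 4) Unreached endpoint = highest concentration. The concentration for 50% growth inhibition is given as GI50. TGI denotes the concentration required for complete inhibition of growth.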

Among the test systems are NCI-H226 lung; UO-31 renal; SK-OV-3 ovarian; SR leukemia; T-47D breast; RPMI-8226 leukemia; NCI/ADR-RES ovarian; IGROV1 ovarian; DU-145 prostate; HL-60(TB) leukemia.
Assay in all cases: NCI anticancer screen, dose series, 48 h

For `O=C(/C=C/c1ccc(C(F)(F)F)cc1)Nc1ccc(C=C2c3ccccc3C(=O)c3ccccc32)cc1`, the GI50 with NCI-H226 lung was 14.2 µM; in the assay on UO-31 renal, 8.47 µM; in the assay with SK-OV-3 ovarian, 12.7 µM; with SR leukemia, 0.772 µM; in the assay on T-47D breast, 3.39 µM; with RPMI-8226 leukemia, 1.15 µM. Further, the GI50 in the assay on NCI/ADR-RES ovarian is 2.86 µM; in the assay on IGROV1 ovarian, 33.2 µM; with DU-145 prostate, 30.5 µM; in the assay with HL-60(TB) leukemia it was 1.78 µM. Also, the TGI with NCI-H226 lung was more than 100 µM; in the assay with UO-31 renal, more than 100 µM; in the assay with SK-OV-3 ovarian, 86.7 µM; in the assay on SR leukemia, 41.7 µM; in the assay with T-47D breast, 56.8 µM; in the assay on RPMI-8226 leukemia it was 85.9 µM. The TGI with NCI/ADR-RES ovarian was 30.9 µM; in the assay with IGROV1 ovarian, more than 100 µM; with DU-145 prostate it was more than 100 µM; with HL-60(TB) leukemia, 8.75 µM.

Take `CCN(Cc1cc(F)ccc1F)c1ccc(CO)c(Cl)c1`: the GI50 with NCI-H226 lung is 0.0484 µM; with UO-31 renal, 2.02 µM; in the assay with SK-OV-3 ovarian, 8.94 µM; with SR leukemia, 16.1 µM; in the assay with T-47D breast, 0.116 µM; with RPMI-8226 leukemia it was 2.24 µM. The GI50 in the assay with NCI/ADR-RES ovarian was 13.6 µM; with IGROV1 ovarian, 0.0527 µM; in the assay with DU-145 prostate, 15.5 µM; in the assay on HL-60(TB) leukemia, 5.62 µM. For the same compound, the TGI with NCI-H226 lung worked out at 0.178 µM; in the assay on UO-31 renal, 23.4 µM; in the assay on SK-OV-3 ovarian it was 29.1 µM; in the assay on SR leukemia it was 44.3 µM; in the assay with T-47D breast it was 1.9 µM; in the assay on RPMI-8226 leukemia, 30.3 µM. Also, the TGI in the assay on NCI/ADR-RES ovarian is 39.9 µM; in the assay with IGROV1 ovarian it was 0.279 µM; in the assay on DU-145 prostate, 36.7 µM; in the assay with HL-60(TB) leukemia, 34.7 µM.

On to `CCCn1cnc2c(SCC(=O)O)nc(N)nc21`, for which the TGI in the assay on NCI-H226 lung, with UO-31 renal, in the assay with SK-OV-3 ovarian, with SR leukemia, in the assay with T-47D breast and with RPMI-8226 leukemia was more than 100 µM throughout. The TGI in the assay with NCI/ADR-RES ovarian, with IGROV1 ovarian, in the assay with DU-145 prostate and in the assay on HL-60(TB) leukemia was more than 100 µM throughout.

For the compound `O=C(Nc1ccc(-n2ccc3c(NC(=O)c4ccccc4)ncnc32)cc1)c1cccc(C(F)(F)F)c1`, the GI50 in the assay with NCI-H226 lung is 6.14 µM; in the assay with UO-31 renal it was 3.42 µM; in the assay on SK-OV-3 ovarian, 4.12 µM; in the assay with SR leukemia it was 0.0678 µM; in the assay on T-47D breast it was 5.82 µM; with RPMI-8226 leukemia, 1.6 µM. Also, the GI50 is 2.67 µM in the assay with NCI/ADR-RES ovarian, 5.63 µM in the assay on IGROV1 ovarian, 1.77 µM with DU-145 prostate and 3.02 µM in the assay on HL-60(TB) leukemia. In addition, the TGI in the assay with NCI-H226 lung was 26.1 µM; with UO-31 renal, 21.7 µM; with SK-OV-3 ovarian it was 29.4 µM; with SR leukemia, more than 32.5 µM; in the assay on T-47D breast it was 30.6 µM; in the assay on RPMI-8226 leukemia, 33.3 µM. For the same compound, the TGI with NCI/ADR-RES ovarian stood at 37.4 µM; in the assay on IGROV1 ovarian, 27.2 µM; in the assay on DU-145 prostate, 16.1 µM; with HL-60(TB) leukemia it was 36.7 µM.

For the compound `CN(C)c1nc(=NCc2ccco2)ss1`, the TGI with NCI-H226 lung was more than 91.5 µM; with UO-31 renal, 50.1 µM; in the assay on SK-OV-3 ovarian it was more than 87 µM; with SR leukemia, 15.3 µM; in the assay with T-47D breast it was 20.1 µM; with RPMI-8226 leukemia, 36.3 µM. The TGI was more than 100 µM in the assay on NCI/ADR-RES ovarian, more than 100 µM in the assay with IGROV1 ovarian, more than 100 µM with DU-145 prostate and 10.6 µM in the assay on HL-60(TB) leukemia.

For the compound `O=c1cc(-c2ccc(O)cc2)oc2cc(O[C@@H]3O[C@H](CO)[C@@H](O)[C@H](O)[C@H]3O)cc(O)c12`, the TGI in the assay on NCI-H226 lung, in the assay with UO-31 renal, in the assay with SK-OV-3 ovarian, with SR leukemia, in the assay with T-47D breast and in the assay on RPMI-8226 leukemia was more than 100 µM throughout. The TGI in the assay on NCI/ADR-RES ovarian, in the assay with IGROV1 ovarian, with DU-145 prostate and with HL-60(TB) leukemia was more than 100 µM in each case.

`NC(=O)[C@@H](CC1CC1)[C@@H](CCC(F)(F)F)C(=O)N[C@H]1N=C(c2ccccc2)c2cccc(F)c2NC1=O`: the GI50 is more than 100 µM in the assay with NCI-H226 lung; 75.3 µM in the assay on UO-31 renal; more than 100 µM with SK-OV-3 ovarian; 12 µM with SR leukemia; 15.3 µM in the assay with T-47D breast; 27.8 µM in the assay with RPMI-8226 leukemia. Also, the GI50 in the assay with NCI/ADR-RES ovarian is more than 100 µM; with IGROV1 ovarian it was 31.7 µM; in the assay with DU-145 prostate, more than 100 µM; with HL-60(TB) leukemia, 11.5 µM. The TGI in the assay on NCI-H226 lung was more than 100 µM; with UO-31 renal it was more than 100 µM; in the assay with SK-OV-3 ovarian, more than 100 µM; in the assay with SR leukemia, more than 100 µM; with T-47D breast, 56.8 µM; with RPMI-8226 leukemia, more than 100 µM. Besides, the TGI in the assay with NCI/ADR-RES ovarian is more than 100 µM; with IGROV1 ovarian it was more than 100 µM; in the assay with DU-145 prostate, more than 100 µM; with HL-60(TB) leukemia, 39.1 µM.

Turning to `Cc1cc(Nc2nc(C(=O)Nc3ccccc3)nc3ccccc23)n[nH]1`, the GI50 in the assay on NCI-H226 lung is 10 µM; in the assay on UO-31 renal it was 1.3 µM; in the assay on SK-OV-3 ovarian, 12.8 µM; in the assay on SR leukemia it was 4.36 µM; in the assay with T-47D breast it was 6.61 µM; with RPMI-8226 leukemia, 12.5 µM. Besides, the GI50 in the assay with NCI/ADR-RES ovarian was 0.916 µM; in the assay with IGROV1 ovarian, 4.48 µM; with DU-145 prostate, 9.08 µM; in the assay on HL-60(TB) leukemia, 5.9 µM. The TGI with NCI-H226 lung, in the assay with UO-31 renal, in the assay with SK-OV-3 ovarian, in the assay with SR leukemia, with T-47D breast and with RPMI-8226 leukemia was more than 25 µM throughout. Besides, the TGI in the assay on NCI/ADR-RES ovarian, in the assay on IGROV1 ovarian, in the assay with DU-145 prostate and in the assay with HL-60(TB) leukemia was more than 25 µM each time.

For the compound `CC(C)c1nc(N(C)S(C)(=O)=O)nc(-c2ccc(F)cc2)c1/C=C/[C@@H](O)C[C@@H](O)CC(=O)O`, the GI50 was more than 100 µM in the assay with NCI-H226 lung; more than 100 µM in the assay with UO-31 renal; more than 100 µM with SK-OV-3 ovarian; 32.7 µM in the assay on SR leukemia; more than 100 µM in the assay with T-47D breast; more than 100 µM in the assay with RPMI-8226 leukemia. Besides, the GI50 in the assay with NCI/ADR-RES ovarian was 48.6 µM; in the assay on IGROV1 ovarian, more than 100 µM; with DU-145 prostate, more than 100 µM; in the assay on HL-60(TB) leukemia it was more than 100 µM. Further, the TGI with NCI-H226 lung, in the assay on UO-31 renal, in the assay on SK-OV-3 ovarian, in the assay with SR leukemia, in the assay with T-47D breast and in the assay with RPMI-8226 leukemia was more than 100 µM each time. The TGI in the assay on NCI/ADR-RES ovarian, in the assay on IGROV1 ovarian, with DU-145 prostate and in the assay on HL-60(TB) leukemia was more than 100 µM throughout.

With `Cc1cc(Cl)ccc1OCC(=O)Nc1nc(N)nc(N)n1`, the TGI in the assay on NCI-H226 lung, with UO-31 renal, in the assay with SK-OV-3 ovarian, with SR leukemia, with T-47D breast and in the assay on RPMI-8226 leukemia was more than 100 µM each time. The TGI with NCI/ADR-RES ovarian, in the assay with IGROV1 ovarian, in the assay on DU-145 prostate and with HL-60(TB) leukemia was more than 100 µM in each case.

Regarding `Cc1ncc(C(=O)Nc2ccc(CN3CCN(C)CC3)c(C(F)(F)F)c2)cc1C#Cc1ccc(N)nc1`, the GI50 in the assay on NCI-H226 lung is 0.206 µM; in the assay on UO-31 renal it was 0.161 µM; in the assay with SK-OV-3 ovarian it was 0.395 µM; in the assay on SR leukemia, 0.189 µM; in the assay with T-47D breast, 1.08 µM; in the assay on RPMI-8226 leukemia it was 0.237 µM. Further, the GI50 in the assay on NCI/ADR-RES ovarian was 1.03 µM; with IGROV1 ovarian, 0.118 µM; in the assay with DU-145 prostate, 0.186 µM; in the assay on HL-60(TB) leukemia it was 0.29 µM. For the same compound, the TGI is 1.66 µM with NCI-H226 lung; 0.793 µM in the assay on UO-31 renal; 2.56 µM with SK-OV-3 ovarian; 4.4 µM in the assay with SR leukemia; 7.2 µM with T-47D breast; 1.58 µM in the assay with RPMI-8226 leukemia. Besides, the TGI in the assay with NCI/ADR-RES ovarian stood at 5.64 µM; with IGROV1 ovarian, 0.751 µM; in the assay with DU-145 prostate, 4.12 µM; in the assay with HL-60(TB) leukemia it was 1.91 µM.

In the case of `CCOc1ccc(/C(C=O)=C(\Cl)c2ccc(OC)cc2)cc1`, the TGI in the assay on NCI-H226 lung, in the assay with UO-31 renal, with SK-OV-3 ovarian, in the assay on SR leukemia, in the assay on T-47D breast and with RPMI-8226 leukemia was more than 100 µM each time. For the same compound, the TGI in the assay on NCI/ADR-RES ovarian, in the assay with IGROV1 ovarian, in the assay on DU-145 prostate and with HL-60(TB) leukemia was more than 100 µM in each case.

Regarding `O=c1c2cc(-c3ccccc3)sc2ncn1Cc1ccc(Cl)c(Cl)c1`, the GI50 is 13.1 µM in the assay with NCI-H226 lung; 31.8 µM in the assay with UO-31 renal; 19.4 µM in the assay with SK-OV-3 ovarian; 5.14 µM in the assay with SR leukemia; 31.8 µM in the assay on T-47D breast; 36.8 µM in the assay on RPMI-8226 leukemia. In addition, the GI50 in the assay on NCI/ADR-RES ovarian was 19.5 µM; in the assay on IGROV1 ovarian, 1.93 µM; in the assay with DU-145 prostate it was 32.9 µM; with HL-60(TB) leukemia, 14.9 µM. The TGI in the assay with NCI-H226 lung was 87.2 µM; in the assay on UO-31 renal, more than 100 µM; in the assay with SK-OV-3 ovarian, 58 µM; in the assay with SR leukemia, 17.9 µM; with T-47D breast it was more than 100 µM; in the assay on RPMI-8226 leukemia, more than 100 µM. In addition, the TGI is 59 µM with NCI/ADR-RES ovarian, 34.9 µM in the assay on IGROV1 ovarian, more than 100 µM in the assay with DU-145 prostate and 34.1 µM in the assay on HL-60(TB) leukemia.

For the compound `[O-][N+]1(CC[N+]2([O-])CCCCC2)CCCCC1`, the TGI in the assay with NCI-H226 lung, with UO-31 renal, in the assay on SK-OV-3 ovarian, in the assay on SR leukemia, in the assay on T-47D breast and in the assay on RPMI-8226 leukemia was more than 100 µM throughout. The TGI with NCI/ADR-RES ovarian, in the assay with IGROV1 ovarian, in the assay with DU-145 prostate and in the assay on HL-60(TB) leukemia was more than 100 µM each time.
